Results reported in paper PMC9219689, “The Antioxidant Cyclic 3-Hydroxymelatonin Promotes the Growth and Flowering of Arabidopsis thaliana” (Antioxidants, 2022).

T1: AtM3H (Arabidopsis thaliana melatonin 3-hydroxylase) (Arabidopsis thaliana, UniProt Q39224)
T1 construct: gene SRG1; full length, 358 residues; N-terminal hexahistidine tag (pET300), removal not mentioned; E. coli BL21(DE3), Ni-NTA purified
T1 sequence (Q39224 1-358): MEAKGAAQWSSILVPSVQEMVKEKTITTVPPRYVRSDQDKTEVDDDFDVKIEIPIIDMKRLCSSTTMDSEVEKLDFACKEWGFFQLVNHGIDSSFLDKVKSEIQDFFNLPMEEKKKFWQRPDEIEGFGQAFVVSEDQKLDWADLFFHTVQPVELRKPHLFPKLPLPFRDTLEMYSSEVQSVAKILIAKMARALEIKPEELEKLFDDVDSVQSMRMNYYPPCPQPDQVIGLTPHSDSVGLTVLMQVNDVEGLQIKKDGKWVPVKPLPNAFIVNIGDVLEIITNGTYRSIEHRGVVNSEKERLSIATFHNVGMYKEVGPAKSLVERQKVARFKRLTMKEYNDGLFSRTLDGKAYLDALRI

B1: AtM3H (Arabidopsis thaliana melatonin 3-hydroxylase) (Arabidopsis thaliana) (protein)
chain: T1 sequence (Q39224 1-358)

Legend:
[1] = target: T1, AtM3H (Arabidopsis thaliana melatonin 3-hydroxylase); assay: HPLC with fluorescence detection of 3-OHM; inhibition of M3H activity; format: biochemical
purified protein = substrate: COc1ccc2[nH]cc(CCNC(C)=O)c2c1; assay: purified protein; settings: co-substrate α-ketoglutarate (160 µM in standard assay), FeSO4 100 µM, ascorbate 1 mM, catalase, optimum conditions (pH 7.3, 30 °C; Methods list Tris/HCl pH 8.0)

Row | Molecule | inhibition at 500 µM [1] | Km (purified protein)
1 | CCC(=O)C1C(=O)CC(C(=O)O)CC1=O (centres unmarked) [Prohexadione-Ca] | 50% | –
2 | B1 | – | 100 µM
